From patent US10828288B2, “Hydrazone derivatives for the treatment of cancer” (RUTGERS, THE STATE UNIVERSITY OF NEW JERSEY, priority 2015, dated 2020)

Assays:
H460 (p53-WT) = assay: Cell growth inhibition assay, H460; format: cell-based, human; conditions: three day assay, H460, FIG. 1
H1299 (p53-null) = assay: Cell growth inhibition assay, H1299; format: cell-based, human; conditions: three day assay, H1299, FIG. 1
[1] = Liposome import assay (RZ-3 fluorescence); format: physicochemical; conditions: for change of RZ-3 fluorescence with reversed [Zn2+]free gradient: large excess of EDTA outside the liposomes, ZMC1 added subsequently; for shuttling of Zn2+ into liposomes: external [Zn2+]free 10 μM
Experimental: DOPC-liposomes were prepared by film rehydration and extrusion followed by gel filtration and diluted to an OD600=0.06 in buffer. The size distribution of the liposomes was determined by dynamic light scattering (DLS) using a Malvern Zetasizer Nano ZS. Fluorescence measurements were taken on a Horiba Fluoromax-4 spectrofluorimeter in a 5×5 mm quartz cuvette with λex/λcm=550/572 nm for RZ-3 and 490/515 nm for calcein. Initial Zn^2+ import/export was quantified by fitting the first 10-30 s of data after each treatment to a line and converted to units of flux using the following Eqn 1:
[formula] where Ji is the initial flux, ΔF/Δt is the slope of the fit line, Fmax is RZ-3 fluorescence in the presence of saturating Zn^2+ and 1% TritonX-100, Fmin is RZ-3 fluorescence in the presence of excess EDTA and 1% TritonX-100, [RZ3] is the concentration of encapsulated RZ-3, and SA/Vol is the surface area to volume ratio calculated assuming hollow spheres of the mean diameter determined by DLS. Intracellular [Zn^2+]free Imaging TOV112D or HEK293 cells (40,000 cells/well) were plated on either 8-well BD Falcon chambered culture slides (Corning Life Sciences) or 8-chambered #1.5 Nunc Lab-Tek II chambered coverglasses (Thermo Scientific) treated with poly-L-lysine. After 48 h, cells were washed 2×5 m in serum-free media and incubated with 1 μM FZ3-AM for 40 m at 37° C. Cells were then washed 2×5 m in either EBSS/H (−)Ca/Mg or phenol-red free DMEM+10% FBS containing the indicated treatments for 20 m before imaging. For nuclear colocalization, 1 μg/mL Hoechst 33342 was also included. Cells were imaged using a Zeiss LSM510 META NLO confocal microscope equipped with 37° C. environmental control chamber. FZ3 and Hoechst 33342 were excited at 488 nm (argon laser) and 790 nm (Chameleon Ti:sapphire laser), respectively. To determine the kinetics of fluorescence change, each background-subtracted image in the time-lapse series was integrated in ImageJ and normalized to the integrated fluorescence of the first frame after treatment. For quantification of intracellular [Zn^2+]free, each cell was analyzed in the treated, 50 μM PYR/ZnCl2 (1:1), and 100 μM TPEN images by taking the mean fluorescence of an ROI inside the cell subtracted by an ROI immediately outside the cell measured in ImageJ. The [Zn^2+]free for each cell was then calculated by Eqn 2: […]

[2] = system: HEK293 (non-cancer, p53-WT) cells; assay: Intracellular [Zn2+]free imaging with FluoZin-3-AM, HEK293; format: cell-based; conditions: for increase of intracellular [Zn2+]free (FZ3-AM fluorescence): HEK293, complete media, confocal microscopy
Experimental: To minimize the potential for Zn^2+ contamination and contributions from poorly defined elements in complete media (e.g. FBS), cells were treated and imaged in Ca^2+ and Mg^2+-free Earle's Balanced Salt Solution supplemented with 10 mM HEPES pH 7.4 (EBSS/H (−)Ca/Mg). Excess ZnCl2 with the Zn^2+ ionophore pyrithione (PYR) was used as a positive control. Excess membrane-permeable Zn^2+ chelator N,N,N′,N′-tetrakis(2-pyridylmethyl)ethane-1,2-diamine (TPEN) was used as a negative control.
To normalize for differential dye loading, cells were then sequentially treated with excess PYR/ZnCl2, imaged, treated with TPEN, and imaged again. PYR/ZnCl2 and TPEN served to saturate and apoize the intracellular FZ3, respectively.
[formula] where Ji is the initial flux, ΔF/Δt is the slope of the fit line, Fmax is RZ-3 fluorescence in the presence of saturating Zn^2+ and 1% TritonX-100, Fmin is RZ-3 fluorescence in the presence of excess EDTA and 1% TritonX-100, [RZ3] is the concentration of encapsulated RZ-3, and SA/Vol is the surface area to volume ratio calculated assuming hollow spheres of the mean diameter determined by DLS. Intracellular [Zn^2+]free Imaging TOV112D or HEK293 cells (40,000 cells/well) were plated on either 8-well BD Falcon chambered culture slides (Corning Life Sciences) or 8-chambered #1.5 Nunc Lab-Tek II chambered coverglasses (Thermo Scientific) treated with poly-L-lysine. After 48 h, cells were washed 2×5 m in serum-free media and incubated with 1 μM FZ3-AM for 40 m at 37° C. Cells were then washed 2×5 m in either EBSS/H (−)Ca/Mg or phenol-red free DMEM+10% FBS containing the indicated treatments for 20 m before imaging. For nuclear colocalization, 1 μg/mL Hoechst 33342 was also included. Cells were imaged using a Zeiss LSM510 META NLO confocal microscope equipped with 37° C. environmental control chamber. FZ3 and Hoechst 33342 were excited at 488 nm (argon laser) and 790 nm (Chameleon Ti:sapphire laser), respectively. To determine the kinetics of fluorescence change, each background-subtracted image in the time-lapse series was integrated in ImageJ and normalized to the integrated fluorescence of the first frame after treatment. For quantification of intracellular [Zn^2+]free, each cell was analyzed in the treated, 50 μM PYR/ZnCl2 (1:1), and 100 μM TPEN images by taking the mean fluorescence of an ROI inside the cell subtracted by an ROI immediately outside the cell measured in ImageJ. The [Zn^2+]free for each cell was then calculated by Eqn 2:
[formula] […] To minimize the effects of outliers the lowest and highest 5% of cells in each series were rejected, and the remaining values averaged to give the value from that experiment. The number of cells analyzed in each trial ranged from 54-163. For nuclear colocalization, treated, PYR/ZnCl2, and TPEN treated images costained with Hoechst 33342 were aligned and each pixel subjected to Eqn. 2 in MATLAB (MathWorks).

ability to cross liposomal (or cellular) membranes [1] | SMILES | cell growth inhibition of p53 wildtype cell line (H460 (p53-WT)) | cell growth inhibition of p53 null cell line (H1299 (p53-null)) | change of RZ-3 fluorescence with reversed [Zn2+]free gradient [1] | shuttling of Zn2+ into liposomes [1] | increase of intracellular [Zn2+]free (FZ3-AM fluorescence) [2] | also measured
– | C/C(=N\Nc1nc2ccccc2o1)c1ccccn1 [Example 2, (E)-2-(2-(1-(pyridin-2-yl)ethylidene)hydrazinyl)benzo[d]oxazole] | undisturbed | undisturbed | – | – | – | –
impermeable | O=C(O)CN(CCN(CC(=O)O)CC(=O)O)CC(=O)O [EDTA] | – | – | did not cause a significant decrease | – | – | –
– | C/C(=N\NC(=O)N1CCC1)c1ccccn1 [Example A6] | – | – | – | shuttled Zn^2+ into the liposomes | did not | –
crossed the liposomal membranes | C/C(=N\NC(=S)N1CCC1)c1ccccn1 [ZMC1] | – | – | time dependent decrease | – | increased | steady-state intracellular [Zn2+]free ([2]; HEK293, 1 μM ZMC1 and 0.5 μM ZnCl2 in EBSS/H (−)Ca/Mg): 18.1 ± 4.7 nM; increase of intracellular [Zn2+]free, compound alone ([2]; HEK293, EBSS/H (−)Ca/Mg, ZMC1 alone without ZnCl2): neither cell type showed an increase; increase of intracellular [Zn2+]free, with ZnCl2 ([2]; HEK293, EBSS/H (−)Ca/Mg, ZMC1 and ZnCl2, two ZnCl2 concentrations): time dependent increase
– | C/C(=N\Nc1nc2ccccc2s1)c1ccccn1 [Example 1, (E)-2-(2-(1-(pyridin-2-yl)ethylidene)hydrazinyl)benzo[d]thiazole] | undisturbed | undisturbed | – | – | – | –

SMILES | ability to cross liposomal (or cellular) membranes [1] | cell growth inhibition of p53 wildtype cell line (H460 (p53-WT)) | cell growth inhibition of p53 null cell line (H1299 (p53-null)) | change of RZ-3 fluorescence with reversed [Zn2+]free gradient [1] | shuttling of Zn2+ into liposomes [1] | increase of intracellular [Zn2+]free (FZ3-AM fluorescence) [2] | also measured
O=C(O)CN(CC(=O)O)CC(=O)O [NTA] | cannot cross | – | – | – | did not | did not | –
